Measurements from patent US6461997B1, “Triazole sulfones having herbicidal activity” (Monsanto Technology LLC, priority 1999, dated 2002).

test system: VERPE (creeping speedwell); experiment: Pre-emergence herbicidal activity, cool season; format: in vivo, Veronica persicaria; settings: lowest tested rate with 80% or greater inhibition; rates 300, 100, 30, 10 g/ha; about 14 days
Method in brief: (§1)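 GR80 values derive from percent inhibition relative to untreated plants, read roughly 14 days after sowing and pre-emergence soil-surface treatment (compound in 50:50 acetone/water; rates typically 10, 30, 100, 300 g/ha). Warm-season weeds grew at 30/21° C day/night, cool-season ones at 18/13° C; an asterisk marks activity without reaching 80% at the highest rate.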

SMILES | Pre-emergence activity GR80, VERPE [g/ha]
CON(C)C(=O)n1cnc(S(=O)(=O)C(F)(F)C(F)F)n1 [Example 69] | 100
CON(C)C(=O)n1cnc(S(=O)(=O)C(F)(F)C(F)(F)Br)n1 [Example 81] | 100
CN(C)C(=O)n1cnc(S(=O)(=O)C(F)(F)Cl)n1 [Example 85] | 100
COCCN(C)C(=O)n1cnc(S(=O)(=O)C(F)(F)Cl)n1 [Example 88] | 30
CN(C(=O)n1cnc(S(=O)(=O)C(F)(F)Cl)n1)C1CCCCC1 [Example 91] | 10

test system: LOLMG (annual ryegrass); experiment: Pre-emergence herbicidal activity, cool season; format: in vivo, Lolium multiflorum; settings: GR80 = lowest tested rate (300, 100, 30, 10 g/ha) with 80% or greater inhibition; approx. 14 days after treating; 18/13° C.
Description: (§2) Tables 5 to 8 summarize results of tests conducted as described below to determine the pre-emergence herbicidal activity, in the form of a GR80 value, of illustrative compounds of this invention. […] Compounds of the invention were typically applied at rates of 300, 100, 30, and 10 g/ha. Where herbicidal activity was evident but 80% inhibition was not achieved at the highest rate tested, an asterisk (*) is shown in the following tables.
(§3) The pre-emergence tests were conducted by the following procedure. Topsoil was sieved to pass through a 1.27 cm screen. Fertilizer was added to the topsoil and the mixture was then sterilized by heating. The topsoil mixture was placed in a pot and compacted to a depth of 1.0 to 1.25 cm from the top of the pot. Seeds of each of several monocotyledonous and dicotyledonous annual plant species were placed on top of the soil. Additional soil was subsequently placed over the seeds to level-fill the pot. A known amount of each test compound dissolved or suspended in an appropriate organic solvent was diluted with a 50:50 mix of acetone and water and applied to the surface of the soil. After treatment the plants were placed in a greenhouse where they received 0.64 cm of overhead irrigation. All subsequent watering consisted of a light overhead mist and/or subirrigation as needed for germination and growth. Tables 5 and 6 below relate to warm season plant species which were placed after pre-emergence treatment in a greenhouse with a 30/21° C. day/night temperature regime. Tables 7 and 8 below relates to cool season plant species placed after pre-emergence treatment in a greenhouse or growth chamber with an 18/13° C. day/night temperature regime.
(§4) Approximately 14 days after planting and treating, the plants were observed and herbicidal efficacy recorded as percent inhibition by comparison with untreated plants.
(§5) The plant species usually regarded as weeds which were utilized in the tests are identified in the tables below according to the following legend, in which “d” indicates a dicotyledonous species and “m” a monocotyledonous species. All monocotyledonous species included in the tests herein are grasses.

SMILES | Pre-emergence activity (GR80) LOLMG [g/ha]
CON(C)C(=O)n1cnc(S(=O)(=O)C(F)(F)C(F)F)n1 [Example 69] | 300
CN(C)C(=O)n1cnc(S(=O)(=O)C(F)(F)Cl)n1 [Example 85] | 100
COCCN(C)C(=O)n1cnc(S(=O)(=O)C(F)(F)Cl)n1 [Example 88] | 300
CN(C(=O)n1cnc(S(=O)(=O)C(F)(F)Cl)n1)C1CCCCC1 [Example 91] | 300

test system: SINAR (wild mustard); experiment: Pre-emergence herbicidal activity, cool season; format: in vivo, Sinapis arvensis; settings: lowest tested rate with 80% or greater inhibition; rates 300, 100, 30, 10 g/ha; about 14 days
Method in brief: as §1

SMILES | Pre-emergence activity GR80, SINAR [g/ha]
CON(C)C(=O)n1cnc(S(=O)(=O)C(F)(F)C(F)F)n1 [Example 69] | 30
CON(C)C(=O)n1cnc(S(=O)(=O)C(F)(F)C(F)(F)Br)n1 [Example 81] | 30
CN(C)C(=O)n1cnc(S(=O)(=O)C(F)(F)Cl)n1 [Example 85] | 30
COCCN(C)C(=O)n1cnc(S(=O)(=O)C(F)(F)Cl)n1 [Example 88] | 30
CN(C(=O)n1cnc(S(=O)(=O)C(F)(F)Cl)n1)C1CCCCC1 [Example 91] | 10

test system: POLCO (wild buckwheat); experiment: Pre-emergence herbicidal activity, cool season; format: in vivo, Polygonum convolvulus; settings: lowest tested rate with 80% or greater inhibition; rates 300, 100, 30, 10 g/ha; about 14 days
Method in brief: (§6)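 GR80 values, pre-emergence, soil applied at 300, 100, 30, 10 g/ha. Warm regime 30/21 °C: PANMI, DIGSA. Cool regime 18/13 °C: ALOMY, POLCO. Rating ~14 d, % inhibition vs untreated.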

SMILES | Pre-emergence activity GR80, POLCO
CON(C)C(=O)n1cnc(S(=O)(=O)C(F)(F)C(F)F)n1 [Example 69] | 100 g/ha
CON(C)C(=O)n1cnc(S(=O)(=O)C(F)(F)C(F)(F)Br)n1 [Example 81] | [empty]
CN(C)C(=O)n1cnc(S(=O)(=O)C(F)(F)Cl)n1 [Example 85] | [empty]
COCCN(C)C(=O)n1cnc(S(=O)(=O)C(F)(F)Cl)n1 [Example 88] | 300 g/ha
CN(C(=O)n1cnc(S(=O)(=O)C(F)(F)Cl)n1)C1CCCCC1 [Example 91] | 100 g/ha

test system: AGSST (creeping bentgrass); experiment: Pre-emergence herbicidal activity, cool season; format: in vivo, Agrostis stolonifera; settings: GR80 = lowest tested rate (300, 100, 30, 10 g/ha) with 80% or greater inhibition; approx. 14 days after treating; 18/13° C.
Method in brief: as §1

SMILES | Pre-emergence activity (GR80) AGSST [g/ha]
CON(C)C(=O)n1cnc(S(=O)(=O)C(F)(F)C(F)(F)Br)n1 [Example 81] | 100
CN(C)C(=O)n1cnc(S(=O)(=O)C(F)(F)Cl)n1 [Example 85] | 100
COCCN(C)C(=O)n1cnc(S(=O)(=O)C(F)(F)Cl)n1 [Example 88] | 100
CN(C(=O)n1cnc(S(=O)(=O)C(F)(F)Cl)n1)C1CCCCC1 [Example 91] | 100

test system: SORVU (shattercane); experiment: Pre-emergence herbicidal activity, warm season; format: in vivo, Sorghum vulgare; settings: GR80 = lowest tested rate (300, 100, 30, 10 g/ha) with 80% or greater inhibition; approx. 14 days after treating; 30/21° C.
Description: as §2, §3, §4, §5

SMILES | Pre-emergence activity (GR80) SORVU [g/ha]
CN(C(=O)n1cnc(S(=O)(=O)C(F)(F)Cl)n1)C1CCCCC1 [Example 91] | 300

test system: LAMPU (purple deadnettle); experiment: Pre-emergence herbicidal activity, cool season; format: in vivo, Lamium purpureum; settings: lowest tested rate with 80% or greater inhibition; rates 300, 100, 30, 10 g/ha; about 14 days
Method in brief: as §1

SMILES | Pre-emergence activity GR80, LAMPU
CON(C)C(=O)n1cnc(S(=O)(=O)C(F)(F)C(F)F)n1 [Example 69] | [empty]
CON(C)C(=O)n1cnc(S(=O)(=O)C(F)(F)C(F)(F)Br)n1 [Example 81] | 100 g/ha
CN(C)C(=O)n1cnc(S(=O)(=O)C(F)(F)Cl)n1 [Example 85] | 100 g/ha
COCCN(C)C(=O)n1cnc(S(=O)(=O)C(F)(F)Cl)n1 [Example 88] | 10 g/ha
CN(C(=O)n1cnc(S(=O)(=O)C(F)(F)Cl)n1)C1CCCCC1 [Example 91] | 30 g/ha

test system: STEME (common chickweed); experiment: Pre-emergence herbicidal activity, cool season; format: in vivo, Stellaria media; settings: lowest tested rate with 80% or greater inhibition; rates 300, 100, 30, 10 g/ha; about 14 days
Method in brief: as §1

SMILES | Pre-emergence activity GR80, STEME [g/ha]
CON(C)C(=O)n1cnc(S(=O)(=O)C(F)(F)C(F)F)n1 [Example 69] | 300
CON(C)C(=O)n1cnc(S(=O)(=O)C(F)(F)C(F)(F)Br)n1 [Example 81] | 30
CN(C)C(=O)n1cnc(S(=O)(=O)C(F)(F)Cl)n1 [Example 85] | 30
COCCN(C)C(=O)n1cnc(S(=O)(=O)C(F)(F)Cl)n1 [Example 88] | 10
CN(C(=O)n1cnc(S(=O)(=O)C(F)(F)Cl)n1)C1CCCCC1 [Example 91] | 30

test system: SASKR (russian thistle); experiment: Pre-emergence herbicidal activity, cool season; format: in vivo, Salsola kali; settings: lowest tested rate with 80% or greater inhibition; rates 300, 100, 30, 10 g/ha; about 14 days
Method in brief: as §1

SMILES | Pre-emergence activity GR80, SASKR
CON(C)C(=O)n1cnc(S(=O)(=O)C(F)(F)C(F)F)n1 [Example 69] | [empty]
CON(C)C(=O)n1cnc(S(=O)(=O)C(F)(F)C(F)(F)Br)n1 [Example 81] | 100 g/ha
CN(C)C(=O)n1cnc(S(=O)(=O)C(F)(F)Cl)n1 [Example 85] | 100 g/ha
COCCN(C)C(=O)n1cnc(S(=O)(=O)C(F)(F)Cl)n1 [Example 88] | 30 g/ha
CN(C(=O)n1cnc(S(=O)(=O)C(F)(F)Cl)n1)C1CCCCC1 [Example 91] | 30 g/ha

test system: DIGSA (large crabgrass); experiment: Pre-emergence herbicidal activity, warm season; format: in vivo, Digitaria sanguinalis; settings: GR80 = lowest tested rate (300, 100, 30, 10 g/ha) with 80% or greater inhibition; approx. 14 days after treating; 30/21° C.
Method in brief: as §6

SMILES | Pre-emergence activity (GR80) DIGSA [g/ha]
COCCN(C)C(=O)n1cnc(S(=O)(=O)C(F)(F)Cl)n1 [Example 88] | 300

test system: SETVI (green foxtail); experiment: Pre-emergence herbicidal activity, cool season; format: in vivo, Setaria viridis; settings: GR80 = lowest tested rate (300, 100, 30, 10 g/ha) with 80% or greater inhibition; approx. 14 days after treating; 18/13° C.
Method in brief: as §1

SMILES | Pre-emergence activity (GR80) SETVI [g/ha]
CON(C)C(=O)n1cnc(S(=O)(=O)C(F)(F)C(F)F)n1 [Example 69] | 100
CN(C)C(=O)n1cnc(S(=O)(=O)C(F)(F)Cl)n1 [Example 85] | 300
COCCN(C)C(=O)n1cnc(S(=O)(=O)C(F)(F)Cl)n1 [Example 88] | 100
CN(C(=O)n1cnc(S(=O)(=O)C(F)(F)Cl)n1)C1CCCCC1 [Example 91] | 300

test system: ABUTH (velvetleaf); experiment: Pre-emergence herbicidal activity, warm season; format: in vivo, Abutilon theophrasti; settings: GR80 = lowest tested rate (300, 100, 30, 10 g/ha) with 80% or greater inhibition; approx. 14 days after treating; 30/21° C.
Description: as §2, §3, §4, §5

SMILES | Pre-emergence activity (GR80) ABUTH [g/ha]
CN(C(=O)n1cnc(S(=O)(=O)C(F)(F)Cl)n1)C1CCCCC1 [Example 91] | 300

test system: AMARE (redroot pigweed); experiment: Pre-emergence herbicidal activity, warm season; format: in vivo, Amaranthus retroflexus; settings: GR80 = lowest tested rate (300, 100, 30, 10 g/ha) with 80% or greater inhibition; approx. 14 days after treating; 30/21° C.
Description: as §2, §3, §4, §5

SMILES | Pre-emergence activity (GR80) AMARE [g/ha]
COCCN(C)C(=O)n1cnc(S(=O)(=O)C(F)(F)Cl)n1 [Example 88] | 100

test system: PANMI (wild proso millet); experiment: Pre-emergence herbicidal activity, warm season; format: in vivo, Panicum miliaceum; settings: GR80 = lowest tested rate (300, 100, 30, 10 g/ha) with 80% or greater inhibition; approx. 14 days after treating; 30/21° C.
Method in brief: as §6

SMILES | Pre-emergence activity (GR80) PANMI [g/ha]
COCCN(C)C(=O)n1cnc(S(=O)(=O)C(F)(F)Cl)n1 [Example 88] | 300
CN(C(=O)n1cnc(S(=O)(=O)C(F)(F)Cl)n1)C1CCCCC1 [Example 91] | 100

test system: GALAP (catchweed bedstraw); experiment: Pre-emergence herbicidal activity, cool season; format: in vivo, Galium aparine; settings: lowest tested rate with 80% or greater inhibition; rates 300, 100, 30, 10 g/ha; about 14 days
Method in brief: as §1

SMILES | Pre-emergence activity GR80, GALAP
CON(C)C(=O)n1cnc(S(=O)(=O)C(F)(F)C(F)F)n1 [Example 69] | 100 g/ha
CON(C)C(=O)n1cnc(S(=O)(=O)C(F)(F)C(F)(F)Br)n1 [Example 81] | [empty]
CN(C)C(=O)n1cnc(S(=O)(=O)C(F)(F)Cl)n1 [Example 85] | [empty]
COCCN(C)C(=O)n1cnc(S(=O)(=O)C(F)(F)Cl)n1 [Example 88] | 100 g/ha
CN(C(=O)n1cnc(S(=O)(=O)C(F)(F)Cl)n1)C1CCCCC1 [Example 91] | 100 g/ha

test system: BROTE (downy brome); experiment: Pre-emergence herbicidal activity, cool season; format: in vivo, Bromus tectorum; settings: GR80 = lowest tested rate (300, 100, 30, 10 g/ha) with 80% or greater inhibition; approx. 14 days after treating; 18/13° C.
Description: as §2, §3, §4, §5

SMILES | Pre-emergence activity (GR80) BROTE [g/ha]
CON(C)C(=O)n1cnc(S(=O)(=O)C(F)(F)C(F)F)n1 [Example 69] | 300
CON(C)C(=O)n1cnc(S(=O)(=O)C(F)(F)C(F)(F)Br)n1 [Example 81] | 30
CN(C)C(=O)n1cnc(S(=O)(=O)C(F)(F)Cl)n1 [Example 85] | 100
COCCN(C)C(=O)n1cnc(S(=O)(=O)C(F)(F)Cl)n1 [Example 88] | 300
CN(C(=O)n1cnc(S(=O)(=O)C(F)(F)Cl)n1)C1CCCCC1 [Example 91] | 300

test system: ALOMY (blackgrass); experiment: Pre-emergence herbicidal activity, cool season; format: in vivo, Alopecurus myosuroides; settings: GR80 = lowest tested rate (300, 100, 30, 10 g/ha) with 80% or greater inhibition; approx. 14 days after treating; 18/13° C.
Method in brief: as §6

SMILES | Pre-emergence activity (GR80) ALOMY [g/ha]
CON(C)C(=O)n1cnc(S(=O)(=O)C(F)(F)C(F)F)n1 [Example 69] | 300
COCCN(C)C(=O)n1cnc(S(=O)(=O)C(F)(F)Cl)n1 [Example 88] | 300
CN(C(=O)n1cnc(S(=O)(=O)C(F)(F)Cl)n1)C1CCCCC1 [Example 91] | 300
